From US10125125B2, “N-(heteroaryl)-sulfonamide derivatives useful as S100-inhibitors” (Active Biotech AB, priority 2013, dated 2018)

Target: biotinylated human S100A9 : rhRAGE-Fc interaction (Homo sapiens (Human), UniProt P06702)
Experiment: AlphaScreen inhibition assay, Biot-hS100A9:hRAGE-Fc (S100A9-RAGE inhibition assay)
Format: binding
From the text: FIG. 1 is a schematic representation of an assay of the inhibition of the interaction between biotinylated human S100A9 and human RAGE-Fc using a small molecule S100A9 binder.
Inhibition Assay, Biot-hS100A9:hRAGE-Fc
The AlphaScreen (Amplified Luminescent Proximity Homogeneous Assay) contains two types of beads, Alpha Donor beads and Acceptor beads (PerkinElmer). Upon laser excitation at 680 nm a photosensitizer in the Donor bead converts ambient oxygen to a more excited singlet state. The singlet oxygen molecule diffuses (maximum 200 nm) to react with a thioxene derivative in the Acceptor bead and generates a chemiluminescence reaction. Fluorophores in the Acceptor bead subsequently emit light at 520-620 nm which can be detected in the EnVision® Multilabel plate Reader (PerkinElmer). The beads are light sensitive and all work with the beads is performed under subdued light conditions or using green filters on light sources (Roscolux Chroma Green #389, Rosco).
In the AlphaScreen Inhibition Assay described here, protein A (Staphylococcus aureus) conjugated Acceptor beads are used together with streptavidin coated Donor beads (Perkin Elmer 6760617M). The Acceptor beads are pre-incubated with Fc-tagged recombinant human RAGE (rhRAGE-Fc) allowing binding of the rhRAGE-Fc to protein A on the beads. Biotinylated human S100A9 (biot-hS100A9) is pre-incubated with the low molecular test compounds. The pre-mixes are then added to the wells of a micro-plate and incubated allowing interaction between biot-hS100A9 and rhRAGE-Fc. Subsequent addition of streptavidin coated Donor beads causes binding of the streptavidin to the biotinylated hS100A9. After an additional incubation the signal is measured.
Without inhibitory compounds, the interaction of biot-hS100A9 to rhRAGE-Fc will bring the Acceptor and Donor beads in close proximity thus generating a high signal. With an inhibitor present the complex will not form resulting in a decreased signal.
Chemicals and reagents. • AlphaScreen® General IgG (Protein A) Detection Kit, (PerkinElmer 6760617M) • HBS-P buffer (GE Healthcare, BR-1003-68) • HBS-N buffer (GE Healthcare, BR-1003-69) • CaCl2 in HBS-P • ZnCl2 in Milli-Q water • DMSO • Biotinylated hS100A9, (biotinylated via cystein by EZ-link Iodoacetyl-PEG2-Biotin reagent (Pierce no. 21334), in HBS-N • rhRAGE-Fc (R&D Systems, 1145-RG-50), in HBS-P
The AlphaScreen assay method is used for screening of the inhibitory effect of different compound samples at fixed concentrations or for IC50 determination by varying the compound concentrations. Samples of test compounds and references are prepared from solutions in DMSO. Relevant reference inhibitors and DMSO are used as controls for defined inhibition and non-inhibition, respectively in the assay. The percent inhibition in assay for test compounds and references are calculated by comparing their obtained assay signals with the signal values for the control with only DMSO (no compound).
Assay concentration of biotinylated hS100A9 and rhRAGE-Fc are batch dependent, and are determined and defined by separate cross-titration experiments using this AlphaScreen inhibition method to verify the optimal setup regarding signal strength and achievement of a defined inhibition with relevant reference compounds. The Final assay concentrations of Acceptor and Donor beads are 20 μg/mL.
Experimental Set Up for Screening, Preparation of Solutions and Beads.
Assay buffer is prepared by adding CaCl2 and ZnCl2 to HBS-P and is used freshly prepared in the experiment.
Biotin-hS100A9 solution for the experiment is prepared by dilution of appropriate amount of stock solution biot-hS100A9 in assay buffer (with CaCl2 and ZnCl2) and incubation in room temperature for 30 minutes.
rhRAGE-Fc solution for the experiment is prepared by dilution appropriate amount of rhRAGE-Fc stock in assay buffer.
Protein A Acceptor beads are diluted in assay buffer and are added to an equal volume of the prepared diluted rhRAGE-Fc solution.

Sequence of biotinylated human S100A9 : rhRAGE-Fc interaction (P06702 whole entry): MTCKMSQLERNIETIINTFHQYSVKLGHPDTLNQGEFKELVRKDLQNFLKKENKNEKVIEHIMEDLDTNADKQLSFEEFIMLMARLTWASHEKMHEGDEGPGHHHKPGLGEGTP

Compound	IC50
CCS(=O)(=O)c1cnc(NS(=O)(=O)Cc2cccc(Cl)c2)c(O)n1 [Example 88, 1-(3-chlorophenyl)-N-[5-(ethanesulfonyl)-3-hydroxypyrazin-2-yl]methane-sulfonamide]	> 1000 nM
O=S(=O)(Cc1cc(Cl)cc(Cl)c1)Nc1cnc(Cl)nc1O [Example 107, N-(2-chloro-4-hydroxypyrimidin-5-yl)-1-(3,5-dichlorophenyl)methanesulfonamide]	4000 nM
CCN(CC)C(=O)c1cc(Cl)cc(CS(=O)(=O)Nc2nnc(Cl)cc2O)c1 [Example 161, 3-chloro-5-{[(6-chloro-4-hydroxypyridazin-3-yl)sulfamoyl]methyl}-N,N-diethylbenzamide]	5100 nM
O=S(=O)(Nc1ncc(Cl)cc1O)c1ccc(C(F)(F)F)nc1 [Example 41, N-(5-chloro-3-hydroxypyridin-2-yl)-6-(trifluoromethyl)pyridine-3-sulfonamide]	> 1000 nM
CCSc1cc(Cl)cc(CS(=O)(=O)Nc2ccc(Cl)nc2O)c1 [Example 186, N-(6-chloro-2-hydroxypyridin-3-yl)-1-[3-chloro-5-(ethylsulfanyl)phenyl]methane-sulfonamide]	< 1000 nM
N#Cc1cncc(NS(=O)(=O)Cc2cc(Cl)cc(Cl)c2)c1O [Example 138, N-(5-cyano-4-hydroxypyridin-3-yl)-1-(3,5-dichlorophenyl)methanesulfonamide]	3900 nM
CS(=O)(=O)c1cnc(NS(=O)(=O)c2cc(Cl)cc(Cl)c2)c(O)n1 [Example 159, 3,5-dichloro-N-(3-hydroxy-5-methanesulfonylpyrazin-2-yl)benzene-1-sulfonamide]	1800 nM
O=S(=O)(Cc1ccc(Cl)c(Cl)c1)Nc1cc(Cl)cnc1O [Example 172, N-(5-chloro-2-hydroxypyridin-3-yl)-1-(3,4-dichlorophenyl)methanesulfonamide]	3100 nM
COc1ccc(S(=O)(=O)Nc2cncc(Cl)c2O)cc1Cl [Example 122, 3-chloro-N-(5-chloro-4-hydroxypyridin-3-yl)-4-methoxybenzene-1-sulfonamide]	> 1000 nM
O=S(=O)(Cc1cc(Cl)cc(Cl)c1)Nc1nc(C(F)(F)F)ncc1O [Example 157, 1-(3,5-dichlorophenyl)-N-[5-hydroxy-2-(trifluoromethyl)pyrimidin-4-yl]methane-sulfonamide]	< 1000 nM
CCS(=O)(=O)c1ccc(NS(=O)(=O)Cc2cc(Cl)cc(Cl)c2)c(O)n1 [Example 188, 1-(3,5-dichlorophenyl)-N-[6-(ethanesulfonyl)-2-hydroxypyridin-3-yl]methane-sulfonamide]	< 1000 nM
CC(C)c1cnc(NS(=O)(=O)c2cnc(Cl)c(Br)c2)c(O)c1 [Example 11, 5-bromo-6-chloro-N-[3-hydroxy-5-(propan-2-yl)pyridin-2-yl]pyridine-3-sulfonamide]	> 1000 nM
O=S(=O)(Nc1nnc(Cl)cc1O)c1cc(Cl)sc1Cl [Example 113, 2,5-dichloro-N-(6-chloro-4-hydroxypyridazin-3-yl)thiophene-3-sulfonamide]	2000 nM
O=S(=O)(Nc1cnccc1O)c1cc(Cl)sc1Cl [Example 63, 2,5-dichloro-N-(4-hydroxypyridin-3-yl)thiophene-3-sulfonamide]	4600 nM
O=S(=O)(Nc1nnc(C(F)(F)F)cc1O)c1cc(F)cc(Cl)c1 [Example 163, 3-chloro-5-fluoro-N-[4-hydroxy-6-(trifluoromethyl)pyridazin-3-yl]benzene-1-sulfonamide]	> 1000 nM
COc1ncc(S(=O)(=O)Nc2cnccc2O)cc1Br [Example 62, 5-bromo-N-(4-hydroxypyridin-3-yl)-6-methoxypyridine-3-sulfonamide]	4400 nM
COc1ncc(S(=O)(=O)Nc2cnc(C(F)(F)F)cc2O)cc1Br [Example 137, 5-bromo-N-[4-hydroxy-6-(trifluoromethyl)pyridin-3-yl]-6-methoxypyridine-3-sulfonamide]	1800 nM
O=S(=O)(Cc1ccc(C(F)(F)F)cc1)Nc1ccc(Cl)nc1O [Example 178, N-(6-chloro-2-hydroxypyridin-3-yl)-1-[4-(trifluoromethyl)phenyl]methane-sulfonamide]	> 1000 nM
O=S(=O)(Cc1cnc(N2CCCC2)c(Cl)c1)Nc1ccc(Cl)nc1O [Example 185, N-(6-chloro-2-hydroxypyridin-3-yl)-1-[5-chloro-6-(pyrrolidin-1-yl)pyridin-3-yl]-methanesulfonamide]	< 1000 nM
CN(C)c1ncc(S(=O)(=O)Nc2ncc(Cl)cc2O)cc1S(C)(=O)=O [Example 136, N-(5-chloro-3-hydroxypyridin-2-yl)-6-(dimethylamino)-5-methanesulfonylpyridine-3-sulfonamide]	> 1000 nM
N#Cc1cc(CS(=O)(=O)Nc2ncc(Cl)cc2O)cs1 [Example 127, N-(5-chloro-3-hydroxypyridin-2-yl)-1-(5-cyanothiophen-3-yl)methanesulfonamide]	1110 nM
O=S(=O)(Nc1ncc(Br)nc1O)C(c1cc(Cl)cc(Cl)c1)C(F)(F)F (racemic) [Example 141, (+/−)-N-(5-bromo-3-hydroxypyrazin-2-yl)-1-(3,5-dichlorophenyl)-2,2,2-trifluoroethane-1-sulfonamide]	< 1000 nM
O=S(=O)(Nc1cncc(Cl)c1O)c1cc(Cl)cc(Cl)c1 [Example 89, 3,5-dichloro-N-(5-chloro-4-hydroxypyridin-3-yl)benzene-1-sulfonamide]	2100 nM

Now from value to compound:

IC50	Compound
< 1000 nM	CCCc1ccc(S(=O)(=O)Nc2ccc(Cl)nc2O)cc1 [Example 179, N-(6-chloro-2-hydroxypyridin-3-yl)-4-propylbenzene-1-sulfonamide]
< 1000 nM	COc1ncc(CS(=O)(=O)Nc2ccc(Cl)nc2O)cc1Cl [Example 182, N-(6-chloro-2-hydroxypyridin-3-yl)-1-(5-chloro-6-methoxypyridin-3-yl)methane-sulfonamide]
530 nM	CS(=O)(=O)c1nc(NS(=O)(=O)Cc2cc(Cl)cc(Cl)c2)c(O)cc1Cl [Example 134, N-(5-chloro-3-hydroxy-6-methanesulfonylpyridin-2-yl)-1-(3,5-dichlorophenyl)-methanesulfonamide]
< 1000 nM	O=S(=O)(Nc1ccnc(Cl)c1O)c1cc(Cl)cc(Cl)c1 [Example 170, 3,5-dichloro-N-(2-chloro-3-hydroxypyridin-4-yl)benzene-1-sulfonamide]
100 nM	CCS(=O)(=O)c1cc(O)c(NS(=O)(=O)Cc2cc(Cl)cc(Cl)c2)nn1 [Example 111, 1-(3,5-dichlorophenyl)-N-[6-(ethanesulfonyl)-4-hydroxypyridazin-3-yl]methanesulfonamide]
140 nM	CS(=O)(=O)c1cnc(NS(=O)(=O)Cc2cc(Cl)cc(Cl)c2)c(O)c1 [Example 32, 1-(3,5-dichlorophenyl)-N-(3-hydroxy-5-methanesulfonylpyridin-2-yl)methane-sulfonamide]
390 nM	N#Cc1nc(NS(=O)(=O)Cc2cc(Cl)cc(Cl)c2)c(O)cc1Cl [Example 130, N-(5-chloro-6-cyano-3-hydroxypyridin-2-yl)-1-(3,5-dichlorophenyl)methane-sulfonamide]
410 nM	O=S(=O)(Cc1cccc(Cl)c1)Nc1nnc(Cl)cc1O [Example 96, N-(6-chloro-4-hydroxypyridazin-3-yl)-1-(3-chlorophenyl)methanesulfonamide]
800 nM	O=S(=O)(Cc1ccc(Cl)c(Cl)c1)Nc1cnc(Cl)cc1O [Example 70, N-(6-chloro-4-hydroxypyridin-3-yl)-1-(3,4-dichlorophenyl)methanesulfonamide]
300 nM	O=S(=O)(Cc1cc(F)cc(Cl)c1)Nc1nnc(Cl)cc1O [Example 94, N-(6-chloro-4-hydroxypyridazin-3-yl)-1-(3-chloro-5-fluorophenyl)methane-sulfonamide]
